Results published in the NIST ThermoML archive (doi:10.1016/j.fluid.2012.11.013).

Details: Liquid, Vibrating tube method

CCC(C)CC [3-methylpentane]
mass density [kg/m3]
Details | 283.15 K | 288.15 K | 293.15 K | 298.15 K | 303.15 K | 308.15 K | 313.15 K | 318.15 K | 323.15 K | 328.15 K
100 kPa | 673.34 | 668.91 | 664.28 | 659.73 | 655.07 | 650.44 | 645.7 | 640.93 | 636.14 | 631.22
2000 kPa | 675.33 | 670.93 | 666.4 | 661.91 | 657.33 | 652.85 | 648.1 | 643.46 | 638.83 | 634.03
5000 kPa | 678.2 | 673.95 | 669.49 | 665.13 | 660.71 | 656.28 | 651.77 | 647.27 | 642.73 | 638.2
7000 kPa | 680.08 | 675.9 | 671.54 | 667.22 | 662.86 | 658.61 | 654.13 | 649.71 | 645.26 | 640.84
10000 kPa | 682.8 | 678.66 | 674.41 | 670.25 | 666 | 661.77 | 657.53 | 653.27 | 648.88 | 644.64
20000 kPa | 691.21 | 687.28 | 683.39 | 679.53 | 675.49 | 671.68 | 667.66 | 663.74 | 659.72 | 655.85
30000 kPa | 698.81 | 695.19 | 691.45 | 687.73 | 683.96 | 680.42 | 676.56 | 672.89 | 669.28 | 665.6
40000 kPa | 705.94 | 702.32 | 698.72 | 695.4 | 691.63 | 688.33 | 684.59 | 681.17 | 677.73 | 674.39
50000 kPa | 712.39 | 708.77 | 705.44 | 702.25 | 698.64 | 695.51 | 692.01 | 688.56 | 685.39 | 682.22
60000 kPa | 718.5 | 715.04 | 711.72 | 708.63 | 705.24 | 702.1 | 698.74 | 695.68 | 692.42 | 689.42
65000 kPa | 721.33 | 718.14 | 714.81 | 711.62 | 708.41 | 705.28 | 702.04 | 699.05 | 695.87 | 692.79
